Reference: ChEMBL document CHEMBL2074423, “Inhibition of P-glycoprotein activity and reversal of cancer multidrug resistance by Momordica charantia extract” (Cancer Chemother Pharmacol, 2004)

Target: ATP-dependent translocase ABCB1 (Homo sapiens, UniProt P08183)
Assay: TP_TRANSPORTER: drug resistance (vinblastine) in KB-V1 cells
Assay type: functional, cell-based

ATP-dependent translocase ABCB1, sequence (P08183 whole entry): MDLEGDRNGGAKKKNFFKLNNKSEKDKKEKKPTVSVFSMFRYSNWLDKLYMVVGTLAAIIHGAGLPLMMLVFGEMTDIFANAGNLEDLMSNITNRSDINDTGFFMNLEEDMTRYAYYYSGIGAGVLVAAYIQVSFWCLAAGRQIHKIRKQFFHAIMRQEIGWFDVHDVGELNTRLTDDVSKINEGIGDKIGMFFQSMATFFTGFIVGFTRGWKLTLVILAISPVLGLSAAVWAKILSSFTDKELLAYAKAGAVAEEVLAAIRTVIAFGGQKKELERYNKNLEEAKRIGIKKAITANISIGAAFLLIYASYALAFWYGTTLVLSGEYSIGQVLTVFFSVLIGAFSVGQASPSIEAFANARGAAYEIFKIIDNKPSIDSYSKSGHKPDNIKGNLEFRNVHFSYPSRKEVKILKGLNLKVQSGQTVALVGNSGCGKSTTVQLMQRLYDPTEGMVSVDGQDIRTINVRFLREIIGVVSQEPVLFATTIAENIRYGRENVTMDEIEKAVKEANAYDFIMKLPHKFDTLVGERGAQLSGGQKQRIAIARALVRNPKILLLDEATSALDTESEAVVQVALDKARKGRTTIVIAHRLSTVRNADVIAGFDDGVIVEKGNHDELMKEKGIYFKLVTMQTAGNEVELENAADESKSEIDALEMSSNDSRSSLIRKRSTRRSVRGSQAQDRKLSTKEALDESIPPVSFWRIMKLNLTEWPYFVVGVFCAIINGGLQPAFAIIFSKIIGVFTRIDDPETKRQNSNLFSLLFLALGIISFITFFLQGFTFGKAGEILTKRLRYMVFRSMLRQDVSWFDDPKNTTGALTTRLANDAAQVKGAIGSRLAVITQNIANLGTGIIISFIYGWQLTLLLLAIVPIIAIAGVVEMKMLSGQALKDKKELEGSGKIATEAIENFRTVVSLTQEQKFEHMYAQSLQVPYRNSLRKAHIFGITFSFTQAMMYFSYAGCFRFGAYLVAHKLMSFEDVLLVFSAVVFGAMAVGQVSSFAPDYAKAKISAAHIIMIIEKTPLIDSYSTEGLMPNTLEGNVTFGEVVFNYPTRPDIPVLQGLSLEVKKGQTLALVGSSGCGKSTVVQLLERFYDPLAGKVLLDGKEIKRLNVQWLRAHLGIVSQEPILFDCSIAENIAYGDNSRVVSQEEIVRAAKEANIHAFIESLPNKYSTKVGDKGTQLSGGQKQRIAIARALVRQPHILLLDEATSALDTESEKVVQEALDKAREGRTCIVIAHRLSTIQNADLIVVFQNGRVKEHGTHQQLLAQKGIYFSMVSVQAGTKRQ

BITTER MELON LEAF EXTRACT
Activity: inhibitor [+]
